From a melting point compilation (Tetko et al.; mined from patent text by program, amines drawn as free bases though some values may be those of a salt)

Row | melting point [°C] | SMILES
1 | 92.7 to 95.4 | CC(=O)NC[C@H]1CN(c2ccc(-n3nccc3-c3ccc(Br)cn3)c(F)c2)C(=O)O1
2 | 295 to 298 | Cc1ccc2c(NCc3ccc(NC(=O)c4ccc(Br)cc4)cc3)nc(Cl)nc2c1
3 | 97.5 to 101 | Cn1cc(C2=C(c3cccc(NC(O)CCO)c3)C(=O)NC2=O)c2ccccc21 (racemic)
4 | 226 to 228 | O=C(Nc1ccc2c(c1)C(=O)NC2=O)C(=O)N1CCC(Cc2ccc(F)cc2)CC1
5 | 236 to 238 | Cc1ccnc2c1nc(-c1cccnc1N)n2-c1ccc(CC(=O)Nc2ccccc2)cc1
6 | 145 to 146 | Cc1onc(-c2ccccc2)c1-c1cc2ccccc2[nH]1
7 | 89 to 91 | Nc1ccccc1Nc1ccc(C(=NO)c2ccccc2)cc1
8 | 172 to 175 | Cc1cc(F)ccc1-c1nc(OCCO)nc2c1CNC(=O)N2c1c(F)cccc1F
9 | 130 | O=C1C(Cc2ccccc2)N(c2ccc(Oc3ccccc3)cc2)C(=S)N1c1ccccc1 (configuration not stated)
10 | 114 | NC(=O)CC[C@H]1CC[C@@H](c2ccc(F)cc2)N1S(=O)(=O)c1ccc(Cl)cc1 (racemic)
11 | 146 to 148 | CC(Oc1ccc(Oc2cnc3cc(Cl)ccc3n2)cc1)C(=O)Nc1ccc(OC(F)(F)C(F)F)cc1 (configuration not stated)
12 | 244 to 245 | CC(=O)Nc1cnc2c(NC(=O)c3c(Cl)cccc3Cl)cccc2c1
13 | 127 to 128 | Cc1cccc(C(=O)c2nc(-c3ccccn3)no2)c1
14 | 169 to 172 | Cc1nc(NCc2ccccc2)sc1C(=O)NCc1ccccc1
15 | 126 to 127 | FC(F)(F)c1cccc(CCc2nnc(-c3ccc4ncsc4c3)o2)c1
16 | 258 | Oc1nc(Cl)nc(NN=Cc2cc(C(F)(F)F)cc(C(F)(F)F)c2)n1
17 | 316 to 318 | O=c1c2ccc(Cl)cc2[nH]c2c(O)nn(-c3ccc(O)cc3)c(=O)c12
18 | 258 to 260 | COc1ccc(-c2oc(C(=O)O)cc(=O)c2O)cc1
19 | 161 to 163 | O=C(c1ccc(F)cc1F)N1Cc2cccnc2Nc2ccccc21

Row | melting point [°C] | SMILES
20 | 68 to 71 | COc1ccc2c(c1)CCC(=Cc1ccc(OCCCN(C)C)cc1)C2=O
21 | 85 to 86 | O=C(O)C(CCOc1ccccc1)CCOc1ccccc1
22 | 170 to 171 | CC(=O)Nc1ccc(C(C)(C)C(=O)O)cc1
23 | > 208 | CCCCc1nn(-c2cc(NC(=O)NCCC)ccc2Cl)c(=O)n1Cc1ccc(-c2ccccc2S(=O)(=O)NC(=O)c2ccccc2Cl)cc1
24 | 214 to 215 | CC(Cl)(Cl)C(NC(=O)c1ccc(C(F)(F)F)cc1)NC(=NS(=O)(=O)C(F)(F)F)Nc1cccnc1 (configuration not stated)
25 | 148 to 149 | OCc1ccc(-c2c3ccccc3nn2Cc2ccccc2)cc1
26 | 167 to 168 | COc1ccc(CC(=O)O)cc1C(=O)NCc1ccc(C(F)(F)F)cc1
27 | 246 to 247 | O=C1Nc2cc(C(F)(F)F)ccc2Oc2ccccc21
28 | 240 to 242 | Cc1nc2cc3c(cc2o1)C1(CO3)C(=O)N(C(c2ccccc2)c2ccccc2)c2ccccc21 (configuration not stated)
29 | 220 to 223 | O=C(O)COc1cc(Br)c2oc3cccc(F)c3c(=O)c2c1
30 | 150 to 152 | N#Cc1cc([N+](=O)[O-])ccc1Oc1ccc(Oc2ccccc2)cc1
31 | 127 | COc1ccc(-c2cnc3ncnn3c2NC2CCCC2)cc1
32 | 131 to 133 | COc1cccc(C2c3ccccc3C(c3ccc4c(c3)OCO4)C2C(=O)O)c1 (configuration not stated)
33 | 160 | CCOC(=O)COc1cc2c(c(Cl)c1Cl)C(=O)C(c1ccc(Cl)cc1)C2 (configuration not stated)
34 | 78 to 80 | Cc1ccc2cccc(OCc3c(Cl)ccc(S(=O)(=O)N4CCC[C@H]4C(=O)NCCCNC(=O)c4ccc(C#N)cc4)c3Cl)c2n1
35 | 202 | O=C1CN(C(=O)c2ccc(Cl)cc2)N(Cc2ccc(Cl)cc2)C(=O)N1
36 | 252 to 254 | COc1ccc(-c2nnc3c4ccccc4c(CC#N)nn23)cc1
37 | 193 to 195 | CC(C)Cn1c(=O)c(-c2c(Cl)cccc2Cl)cc2cnc(N)nc21
38 | 143 | COCC(=O)Nc1cccc(-n2nc(OC)c(=O)n(Cc3ccc(Cl)cc3)c2=O)c1

The next lines start with the compound.

Row | SMILES | melting point [°C]
39 | Cc1ccc2c(c1)C(=O)CC2c1ccc(F)cc1 (configuration not stated) | 68 to 70
40 | CCOC(=O)/C=C/c1cccc(C2COc3c(C)c(C)c(NC(=O)CC(C)(C)C)c(C)c32)c1 (configuration not stated) | 199 to 200
41 | N#Cc1c(-c2ccc(Cl)c(Cl)c2)[nH]c(C(F)(F)F)c1C(F)(F)F | 205 to 208
42 | CCCC(=NOCC)C1=C(O)CC(c2ccc(C=O)cc2)CC1=O (configuration not stated) | 81 to 82
43 | COC1=CC(C=O)(NC(c2ccccc2)(c2ccccc2)c2ccccc2)NC=C1 (configuration not stated) | 172
44 | N#Cc1ccc(C=CCCC(=O)O)cc1 | 154 to 156
45 | NCCCCCCCNC(=O)OCc1ccccc1 | 78 to 80
46 | Cc1cc(C(C)(C)C)c(C)c(O)c1-c1c(C)cc(C(C)(C)C)c(C)c1O | 103 to 105
47 | NNc1c(Cl)cc(C(F)(F)F)c(F)c1Cl | 50 to 51
48 | Nc1ccc(Cn2cnc3c(-c4ccco4)ncnc32)cc1 | 195 to 197
49 | COc1cc(OC)nc(Sc2ncccc2C(=O)O)n1 | 165 to 168
50 | Nc1nc(-c2ccc(CCCCN3CCN(c4nsc5ccccc45)CC3)cc2)cs1 | 258 to 261
51 | CN(c1ccc2c(c1)CCC2)c1nc(=O)c2cccnc2s1 | 157 to 160
52 | CSc1ccc(NC(=O)CN2CCN(CCSc3nc4ccccc4o3)CC2)c(C)n1 | 116 to 117
53 | COc1cc2cc(C#N)c(N)cc2cc1OCc1ccccc1 | 241 to 243
54 | Cc1c(Nc2c(C#N)cnc3scc(CO)c23)ccc2[nH]ccc12 | 230
55 | COc1cc(N)c([N+](=O)[O-])cc1C(=O)O | 254
56 | O=C(O)CCCCCCC1=CC(O)CC1=O (configuration not stated) | 47 to 48.5
57 | C=CCn1nc(C(=O)NC)cc1OCCCN1CCN(c2cccc3sccc23)CC1 | 138 to 140
58 | O=S(=O)(Cl)Cc1csc(-c2ccc(Cl)c(Cl)c2)n1 | 124 to 127
59 | c1cc(Cn2ccnc2)c2nccnc2c1 | 121
60 | Cc1cc(-c2c[nH]cc2C#N)c(Cl)cc1F | 132 to 133

Row | SMILES | melting point [°C]
61 | Cc1cc(C)cc(-c2cc3cnc(N)nc3nc2N)c1 | 298 to 302
62 | OC[C@@H]1Cc2cc3ccccc3n2C[C@H]1CO (relative stereo) | 162 to 163
63 | COc1ccc(-c2cncc(OC3SCC(O)C(O)C3O)c2)cn1 (configuration not stated) | 189
64 | Fc1cc(F)c2c(c1)CCC(n1cc[nH]c1=S)C2 (configuration not stated) | 260 to 261
65 | CC(=O)On1cnc2c(Br)csc2c1=O | 159 to 162
66 | Clc1ncnc2[nH]nc(-c3ccccc3)c12 | > 250
67 | Cc1cc(C(Cl)=NO)ccc1Br | 77 to 78
68 | C(=C1CN2CCC1CC2)c1ccc(-c2ccccc2)cc1 | 107
69 | COC(=O)c1ccc(N2CCN(C)CC2)cc1 | 117 to 119
70 | N#Cc1ccc(NC(=O)CBr)cc1 | 166 to 168
71 | CC#CCCn1ncc2c(N)c3c(nc21)CN(CCCC)C3=O | 171 to 172
72 | COc1cc(NC(=O)Nc2ccccc2)cc(Cl)n1 | 161 to 162
73 | CCCCCCCCCCCCCCOc1ccc(COC(=O)NCc2ccccn2)cc1 | 67 to 68
74 | CN(C)CCCC(=O)N1CCC(C2c3ncc(Br)cc3CCc3cc(Cl)cc(Br)c32)CC1 (single isomer, unassigned; (+)) | 78 to 80
75 | CCCOC(=O)C1CCC2C3CCC4CC(O)C(O)CC4(C)C3C(NCCC(C)C)CC12C (configuration not stated) | 140 to 142
76 | O=C1CCN(c2ccc(S(=O)(=O)NCc3ccccc3)cc2)CC1 | 136 to 140
77 | CC1=CC2(C)CC3CCCC(C)(C2=O)C13 (configuration not stated) | 46 to 47
78 | CON1C(C)(C)CC(OC(=O)c2cc(C(C)(C)C)c(O)c(C(C)(C)C)c2)CC1(C)C | 126 to 128
79 | Cc1nc2nc(Cl)c(Cl)nc2s1 | 58 to 60
80 | N#CCCN(N)c1nc2ccccc2o1 | 169 to 170
81 | O=C(c1ccc2c(c1)OCCO2)c1cc2ccccc2o1 | 68 to 70
82 | CN(C)C(=O)Cc1cccc(C(=O)c2ccccc2)c1N | 123 to 124

Row | SMILES | melting point [°C]
83 | O=[N+]([O-])c1cc(NC(=S)N2CCCCN2)c(F)cc1Cl | 118 to 120
84 | CCCc1c(N)c(C(C)=O)cc(C(C)=O)c1O | 138 to 139
85 | C(=C(c1ccccc1)c1ccccc1)P(c1ccccc1)c1ccccc1 | 116 to 118
86 | Cc1ccc(-n2c(=O)nc(N(C)C)n(C)c2=O)cc1C | 189 to 191
87 | CC12C=CC(=O)C=C1C(N=[N+]=[N-])CC1C2CCC2(C)C(=O)CCC12 (configuration not stated) | 168 to 170
88 | COC(=O)c1cc(Cl)c(N)c(Cl)c1 | 72 to 74
89 | COC(=O)C1=C(C)NC(C)=C(C(=O)OCCCCCCS(=O)c2nc(C)cs2)C1c1cccc([N+](=O)[O-])c1 (configuration not stated) | 81 to 83
90 | CSC[C@H]1NC(=O)[C@@H](Cc2ccccc2)NC1=O | 246 to 247
91 | Cc1cc2ncccn2n1 | 54 to 57
92 | N#Cc1cc(Cc2ccncc2)cc(-c2cccc([N+](=O)[O-])c2)c1O | 225
93 | COc1nc2cc([N+](=O)[O-])c(C)c(C(=O)NCC(=O)OC(C)(C)C)c2nc1OC | 125 to 126
94 | CNC(=O)C1Cc2c(nc(C)n2C)C2=C1C(=O)CC1(Cc3ccccc3C1)N2 (configuration not stated) | 93 to 94
95 | C=CCN1CCc2ccc(C(=O)CCC(=O)N3CCC(c4ccc(Cl)cc4)CC3)cc2CC1 | 136 to 137
96 | NC(=O)CC(CC(N)=O)c1ccccc1Br | 168 to 170
97 | Cc1ccc2c(c1)C1CN(CCCC(=O)c3ccc(F)cc3)CCC1N2C (configuration not stated) | 140 to 145
98 | CC12CCC3c4ccc(O)cc4CC(O)C3C1CCC2O (configuration not stated) | 254 to 257
99 | CCn1nnnc1NCC(O)COc1cccc(CN2CCCCC2)c1 (configuration not stated) | 111 to 113
100 | O=NCNC1=Nc2ccc([N+](=O)[O-])cc2C(c2ccccc2Cl)=NC1 | 164 to 166
101 | O=Cc1ccc(O)c(NC(=O)CCl)c1 | 190 to 192
102 | CN1C(=O)CC[C@]2(C)c3ccc(-c4ccc(O)c(Cl)c4)cc3CC[C@@H]12 | 245
